Data as given in patent US20100311683A1, “CYTIDINE ANALOGS FOR TREATMENT OF MYELODYSPLASTIC SYNDROMES” (priority 2007, published 2010).
Where two headings read alike, the source gives them in different places.

System: MDS patients

Nc1ncn([C@@H]2O[C@H](CO)[C@@H](O)[C@H]2O)c(=O)n1 [azacitidine, 4-amino-1-β-D-ribofuranosyl-1,3,5-triazin-2(1H)-one]
onset of IWG-defined HI in Cycle 1 (AZA 5-2-2 (75 mg/m2/d), n=22): 9 (41) %
onset of IWG-defined HI in Cycle 2 (AZA 5-2-2 (75 mg/m2/d), n=22): 9 (41) %
onset of IWG-defined HI in Cycle 3 (AZA 5-2-2 (75 mg/m2/d), n=22): 1 (5) %
onset of IWG-defined HI in Cycle 4 (AZA 5-2-2 (75 mg/m2/d), n=22): 0%
onset of IWG-defined HI in Cycle 5 (AZA 5-2-2 (75 mg/m2/d), n=22): 2 (9) %
onset of IWG-defined HI in Cycle 6 (AZA 5-2-2 (75 mg/m2/d), n=22): 1 (5) %
FAB low-risk patients RBC transfusion independent at baseline who remained independent during the study (AZA 5-2-5 (50 mg/m2/d)): 80%
RBC transfusion-dependent patients who achieved and retained independence at the end of cycle 6 (AZA 5-2-5 (50 mg/m2/d)): 92%
evaluable patients RBC transfusion independent at baseline who remained independent during the study (AZA 5-2-5 (50 mg/m2/d)): 79%
mean duration of RBC transfusion independence (AZA 5-2-5 (50 mg/m2/d)): 138 days
onset of HI within the first 3 cycles (AZA 5-2-5 (50 mg/m2/d)): 88%
patients with at least 1 treatment-emergent AE that led to study discontinuation (AZA 5-2-5 (50 mg/m2/d)): 20%
patients with bilineage HI (AZA 5-2-5 (50 mg/m2/d)): 7%
patients with serious AEs (AZA 5-2-5 (50 mg/m2/d)): 40%
Any HI (major and minor) (AZA 5-2-5 (50 mg/m2/d), N=44): 23 (52) [37, 68] %
Erythroid Major HI (IWG 2000), evaluable patients (AZA 5-2-5 (50 mg/m2/d), N=44): 17 (39) [24, 55] %
Erythroid Minor HI (AZA 5-2-5 (50 mg/m2/d), N=44): 1 (2) [0.1, 12] %
Neutrophil Major HI (AZA 5-2-5 (50 mg/m2/d), N=44): 4 (9) [40, 100] %
Neutrophil Minor HI (AZA 5-2-5 (50 mg/m2/d), N=44): 0 [0, 8] %
Platelet Major HI (AZA 5-2-5 (50 mg/m2/d), N=44): 8 (18) [8, 33] %
Platelet Minor HI (AZA 5-2-5 (50 mg/m2/d), N=44): 0 [0, 8] %
Grade 3/4 AE: Anemia (AZA 5-2-5 (50 mg/m2/d), N=48): 7 (15) %
Grade 3/4 AE: Candida Sepsis (AZA 5-2-5 (50 mg/m2/d), N=48): 0%
Grade 3/4 AE: Cellulitis (AZA 5-2-5 (50 mg/m2/d), N=48): 1 (2) %
Grade 3/4 AE: Epistaxis (AZA 5-2-5 (50 mg/m2/d), N=48): 0%
Grade 3/4 AE: Febrile neutropenia (AZA 5-2-5 (50 mg/m2/d), N=48): 4 (8) %
Grade 3/4 AE: GI hemorrhage (AZA 5-2-5 (50 mg/m2/d), N=48): 1 (2) %
Grade 3/4 AE: Hematologic Disorders (AZA 5-2-5 (50 mg/m2/d), N=48): 24 (50) %
Grade 3/4 AE: Hemorrhagic Events (AZA 5-2-5 (50 mg/m2/d), N=48): 3 (6) %
Grade 3/4 AE: Hemorrhagic anemia (AZA 5-2-5 (50 mg/m2/d), N=48): 0 n (%)
Grade 3/4 AE: Infections (AZA 5-2-5 (50 mg/m2/d), N=48): 14 (29) %
Grade 3/4 AE: Leukopenia (AZA 5-2-5 (50 mg/m2/d), N=48): 4 (8) %
Grade 3/4 AE: Neutropenia (AZA 5-2-5 (50 mg/m2/d), N=48): 15 (31) %
Grade 3/4 AE: Pneumonia (AZA 5-2-5 (50 mg/m2/d), N=48): 4 (8) %
Grade 3/4 AE: Rectal hemorrhage (AZA 5-2-5 (50 mg/m2/d), N=48): 1 (2) %
Grade 3/4 AE: Thrombocytopenia (AZA 5-2-5 (50 mg/m2/d), N=48): 7 (15) %
Grade 3/4 AE: Urinary tract infection (AZA 5-2-5 (50 mg/m2/d), N=48): 3 (6) %
Grade 3/4 AE: ≥1 Adverse Event (AZA 5-2-5 (50 mg/m2/d), N=48): 37 (77) %
onset of IWG-defined HI in Cycle 1 (AZA 5-2-5 (50 mg/m2/d), n=24): 6 (25) %
onset of IWG-defined HI in Cycle 2 (AZA 5-2-5 (50 mg/m2/d), n=24): 8 (33) %
onset of IWG-defined HI in Cycle 3 (AZA 5-2-5 (50 mg/m2/d), n=24): 7 (29) %
onset of IWG-defined HI in Cycle 4 (AZA 5-2-5 (50 mg/m2/d), n=24): 2 (8) %
onset of IWG-defined HI in Cycle 6 (AZA 5-2-5 (50 mg/m2/d), n=24): 0%
hematologic AE: anemia (all 3 regimens): 29%
hematologic AE: leukopenia (all 3 regimens): 18%
hematologic AE: neutropenia (all 3 regimens): 38%
hematologic AE: thrombocytopenia (all 3 regimens): 24%
nonhematologic AE: constipation (all 3 regimens): 51%
nonhematologic AE: fatigue (all 3 regimens): 93%
nonhematologic AE: injection site erythema (all 3 regimens): 55%
nonhematologic AE: injection site pain (all 3 regimens): 54%
nonhematologic AE: nausea (all 3 regimens): 55%
Grade 3/4 AE: Anemia (all 3 regimens, N=148): 24 (16) %
Grade 3/4 AE: Candida Sepsis (all 3 regimens, N=148): 1 (1) %
Grade 3/4 AE: Cellulitis (all 3 regimens, N=148): 4 (3) %
Grade 3/4 AE: Epistaxis (all 3 regimens, N=148): 1 (1) %
Grade 3/4 AE: Febrile neutropenia (all 3 regimens, N=148): 9 (6) %
Grade 3/4 AE: GI hemorrhage (all 3 regimens, N=148): 2 (1) %
Grade 3/4 AE: Hematologic Disorders (all 3 regimens, N=148): 74 (50) %
Grade 3/4 AE: Hemorrhagic Events (all 3 regimens, N=148): 8 (5) %
Grade 3/4 AE: Infections (all 3 regimens, N=148): 30 (20) %
Grade 3/4 AE: Leukopenia (all 3 regimens, N=148): 15 (10) %
Grade 3/4 AE: Neutropenia (all 3 regimens, N=148): 47 (32) %
Grade 3/4 AE: Pneumonia (all 3 regimens, N=148): 5 (3) %
Grade 3/4 AE: Rectal hemorrhage (all 3 regimens, N=148): 1 (1) %
Grade 3/4 AE: Thrombocytopenia (all 3 regimens, N=148): 26 (18) %
Grade 3/4 AE: Urinary tract infection (all 3 regimens, N=148): 3 (2) %
Grade 3/4 AE: ≥1 Adverse Event (all 3 regimens, N=148): 108 (73) %
serious AEs involving GI disorders (all 3 regimens, n=12): 8%
serious AEs involving blood or lymphatic system disorders (all 3 regimens, n=19): 13%
serious AEs involving infections (all 3 regimens, n=31): 21%
patients platelet transfusion independent at baseline who remained independent (each alternative dosing regimen group): ≥ 92%
patients with trilineage HI (each of the 3 alternative treatment groups (2 patients each)): 4%
platelet transfusion independence in baseline-dependent patients (five patients (AZA 5-2-2 n=2, AZA 5 n=3)): all of whom achieved transfusion independence
tolerability (three alternative dosing regimens): generally well tolerated
